One substance from publication PMC5008855 (Organic & biomolecular chemistry, 2016) can be followed below.

The target in the assay is T1, human COX-2 enzyme (cyclooxygenase II) (Homo sapiens, UniProt P35354).
T1 sequence (P35354 18-604): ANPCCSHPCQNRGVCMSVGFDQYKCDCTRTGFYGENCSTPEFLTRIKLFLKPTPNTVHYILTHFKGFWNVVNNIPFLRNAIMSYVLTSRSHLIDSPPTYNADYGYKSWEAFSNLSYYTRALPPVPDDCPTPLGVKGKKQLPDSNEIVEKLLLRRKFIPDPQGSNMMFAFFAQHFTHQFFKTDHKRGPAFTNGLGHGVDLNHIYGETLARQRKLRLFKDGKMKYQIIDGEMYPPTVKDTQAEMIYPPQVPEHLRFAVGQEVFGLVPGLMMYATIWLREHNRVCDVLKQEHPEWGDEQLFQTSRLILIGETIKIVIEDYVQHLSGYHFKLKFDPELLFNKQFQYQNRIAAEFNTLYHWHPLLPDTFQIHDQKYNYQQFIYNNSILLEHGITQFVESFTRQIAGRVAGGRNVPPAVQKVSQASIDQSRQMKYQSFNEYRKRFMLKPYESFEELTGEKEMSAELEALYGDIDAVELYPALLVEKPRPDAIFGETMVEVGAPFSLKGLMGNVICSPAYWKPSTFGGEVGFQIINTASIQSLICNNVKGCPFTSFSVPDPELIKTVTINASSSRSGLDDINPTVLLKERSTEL
The experiment in a line: human COX-2 activity inhibition assay. Type of assay: biochemical.

For homoneoprofen [compound 2], the IC50 (in general, the concentration that inhibits the measured activity by half) was 2000 nM. That is a single-digit micromolar value.
